The values below come from paper PMC12952245 (Cancer, 2025).

Molecules are shown by their SMILES. A value given as a limit tells only on which side of the number the result lay.

For data set [1], the system named is patients with advanced solid tumors. The data set can be described thus: Phase 1 safety of berzosertib plus irinotecan: treatment-related adverse events (CTCAE v5.0), DLT, MTD/RP2D. Format: in vivo. How it is done:
Berzosertib was supplied under a Collaborative Research and Development Agreement among NCI, Vertex Pharmaceuticals, and EMD Serono. Irinotecan was obtained from commercial sources.
Treatment cycles were 28 days long (Supporting Information S1: Figure S1).
A history and physical examination were conducted at baseline and before each cycle. Complete blood counts and serum chemistries were performed at baseline and weekly during C1 and every 2 weeks thereafter. Toxicities were graded using NCI Common Terminology Criteria for Adverse Events (version 5.0) and defined as adverse events that were possibly, probably, or definitely related to treatment. Radiographic evaluation was performed at baseline and every 8 weeks for tumor response based on Response Evaluation Criteria in Solid Tumors (RECIST) version 1.1.
DLs were evaluated using a modified Storer’s up and down design with the plan of enrolling up to 36 evaluable patients during dose escalation (Supporting Information S1: Figure S1).[8] Stage I of the Modified Storer’s up and down design is single patient dose escalation until a DLT is observed. Once a DLT is observed, patients are treated in cohorts of five in stage II of the design. The MTD was defined as the highest DL tested at which ≤20% patients experience dose limiting toxicity (DLT) during C1 of therapy.

A further data set can be described thus: clinical. As to conditions: human, in vivo. How it is done: (§1) Berzosertib plasma protein binding was assessed in vitro using rapid equilibrium dialysis (RED) devices (Thermo Fisher Scientific, Waltham, Massachusetts).
(§2) Plasma pharmacokinetic parameters were derived from the data by noncompartmental methods with WinNonlin (Certara). Statistical analyses for pharmacokinetic parameter values were performed using SPSS 27.0 for Windows (SPSS Inc, Chicago, Illinois).

Data set [2] in a line: Berzosertib plasma protein binding in vitro, rapid equilibrium dialysis. Format: in vitro ADME. Conditions: human plasma, 300 – 100,000 µg/L tested.
A further data set deals with p-Chk1. Conditions: reported value, no reference given; cited from earlier work.
Details of data set [3]: method as in PMID 32568634. Conditions: highest dose level 240 mg/m^2 once or twice weekly; cited from earlier work.
Data set [4] is described as follows: Irinotecan and metabolites plasma pharmacokinetics (LC-MS/MS, noncompartmental). The procedure: as §1, §2
The test system of data set [5] is ATM and H2AX phosphorylation in PBMCs. Description: PBMC DNA damage signaling, quasi-quantitative dual multiplexed immunoblot. It is filed as in vivo, human. How it is done: Blood was processed and analysis performed as described.[11]–[13]
On the technique in general: Immunoblotting shows a protein as a band on a membrane.

Data set [6] has as its system γH2AX, pS343-NBS1, and pS824-KAP1. The data set can be described thus: Tumor DNA damage signaling, multiplex immunofluorescence of paired biopsies. As to conditions: 18–22 hours after end of irinotecan infusion (C1D-13), one colon cancer patient; 4% is the assay baseline. It is filed as in vivo, human. An excerpt:
Paired tumor biopsies were collected from patients enrolled in the expansion cohort. […] The staining of FFPE tissue sections used the BOND RX autostainer (Leica Biosystems). For γH2AX and […]-NBS1 analysis, biotin-conjugated γH2AX (clone JBW301; EMD Millipore) and a custom-conjugated […]-NBS1-DIG (clone EP178; Abcam) antibodies were detected with the use of streptavidin labeled with Alexa Fluor 488 and Alexa Fluor 647 custom-conjugated IgG Fraction Monoclonal Mouse Anti-Digoxin antibody, respectively. For […]-KAP1 analysis, anti-[…]-KAP1 antibody (clone EPR5248; Abcam) custom conjugated to dinitrophenol (Molecular Probes, Inc) was detected using Alexa Fluor 488 conjugated anti-dinitrophenyl KLH rabbit polyclonal antibody. In addition, β-catenin antibody custom conjugated to Alexa Fluor 546 was used to define tumor areas in all biomarker analyses. For γH2AX and […]-NBS1 analysis, fluorescent whole slide images were acquired at 20× using Leica's Aperio FL scanner. Images were then analyzed using a custom algorithm build in Definiens Tissue Studio Analysis software (formerly Definiens AG). For […]-KAP1 analysis, whole slide fluorescent images were acquired at 20× using ZEISS Axioscan 7 scanner. Images were analyzed using a custom algorithm in HALO software (Indica Labs).

The mark [7] stands for this setting: D15, irinotecan 180/150 mg/m^2 with berzosertib (N=41), geometric mean (SD).
Where [8] appears, read: D-14, irinotecan 180 mg/m^2 alone (N=55), geometric mean (SD).
The mark [9] stands for this setting: N=39, with/without berzosertib, geometric mean (SD).
Setting [10] is: irinotecan 180 mg/m^2 (N=55), D-14 (alone), geometric mean (SD).

Broadly, the Tmax is the time from dosing to the highest level. Broadly, the AUC(0-inf) is total exposure, with the tail of the curve extrapolated. A lower AUC(0-inf) goes with less exposure. As usually defined, the Cmax is the highest concentration seen after dosing. By half-life is commonly meant the time in which the quantity being followed falls by half. High values mean slow loss, low ones fast loss.

As for `CNCc1ccc(-c2cc(-c3nc(-c4ccc(S(=O)(=O)C(C)C)cc4)cnc3N)on2)cc1` [berzosertib], in data set [1] (human, in vivo), the “berzosertib exposure (AUC) versus cycle 1 toxicity grade” value was “higher in patients with C1 higher any grade toxicity and higher hematologic grade toxicity”. The “MTD and RP2D, berzosertib dose” value in data set [1] (with irinotecan 180 mg/m^2, iv every 2 weeks (DL4)) came out at 270 mg/m^2. Besides, in the data set “clinical”, the Cl was 24.3 (1.30) L/h/m^2, the Cmax/Dose is listed as 4.90 (1.45) µg/L / mg/m^2, the Tmax stood at 0.61 h and the Vss is given as 530 (1.30) L/m^2. In addition, the Vz in “clinical” was 612 (1.31) L/m^2. Also, in “clinical” (60 mg/m2), the AUC(0-inf) amounted to 2330 ng·h/mL, the Cl is recorded as 25.7 (-) L/h/m^2, the Cmax was found to be 343 ng/mL and the Cmax/Dose was 5.72 (-) µg/L / mg/m^2. Also, in “clinical” (60 mg/m2), the Tmax is 0.45 h, the Vss is recorded as 459 (-) L/m^2 and the half-life is 14.4 h. For the same compound, in “clinical” (120 mg/m2), the total exposure AUC(0-inf) is 4190 ng·h/mL, the Cl was 28.7 (1.40) L/h/m^2, the peak level (Cmax) was 535 ng/mL and the Tmax is 0.54 h. Besides, the half-life in “clinical” (120 mg/m2) is 14.1 h. Further, in the data set “clinical” (180 mg/m2), the AUC(0-inf) was determined as 8550 ng·h/mL, the Cl was 21.1 (1.20) L/h/m^2, the highest concentration (Cmax) was 1060 ng/mL and the Cmax/Dose is listed as 5.92 (1.44) µg/L / mg/m^2. Besides, in the data set “clinical” (180 mg/m2), the Tmax is 0.66 h, the Vss was 422 (1.37) L/m^2 and the half-life is 16.1 h. Further, in the data set “clinical” (270 mg/m2), the AUC(0-inf) came out at 11000 ng·h/mL, the Cl is on record as 24.6 (1.30) L/h/m^2, the peak level (Cmax) was 1260 ng/mL and the Cmax/Dose was 4.67 (1.46) µg/L / mg/m^2. In the data set “clinical” (270 mg/m2), the Tmax worked out at 0.61 h, the Vss is 578 (1.24) L/m^2 and the half-life was 18.8 h. In “clinical” (iv), the half-life is roughly 17 h, the total clearance is on record as 24 L/h/m^2 and the volume of distribution entry is given as “approximately 530 L/m^2”. In addition, the “concentration from which the free fraction increased (plasma protein binding)” value in data set [2] is on record as “approximately 30 μg/mL”. Moreover, the “human equivalent p-Chk1 IC50” value with p-Chk1 was “approximately 110 ng/mL”. The “dose-limiting toxicities, monotherapy” value in data set [3] is listed as “no dose-limiting toxicities”.

As for `CCc1c2c(nc3ccc(OC(=O)N4CCC(NCCCCC(=O)O)CC4)cc13)-c1cc3c(c(=O)n1C2)COC(=O)[C@]3(O)CC` [APC], the “APC/ IRI AUC Ratio” value in data set [4] (setting [7]) is given as 0.221 (1.96). In addition, in data set [4] (setting [8]), the “APC/ IRI AUC Ratio” value is reported as 0.196 (1.80). The “APC/ IRI AUC Ratio, D15/D-14” value in data set [4] (setting [9]) is listed as 1.09 (1.50). Moreover, in data set [4] (human, in vivo, 180 mg/m2), the “APC AUC0-inf” value was 2.74 (1.92) mg/L•h and the “APC Cmax” value is 201 (1.81) µg/L. Also, the “APC t½” value in data set [4] (irinotecan 180 mg/m^2 (N=55), day -14 of cycle 1, geometric mean (SD)) is given as 12.1 (1.3) h.

On to `CCc1c2c(nc3ccc(OC(=O)N4CCC(N5CCCCC5)CC4)cc13)-c1cc3c(c(=O)n1C2)COC(=O)[C@]3(O)CC` [irinotecan], for which, in data set [1] (with berzosertib 270 mg/m^2, iv every 2 weeks (DL4)), the “MTD and RP2D, irinotecan dose” value is on record as 180 mg/m^2. Also, in data set [4] (human, in vivo, 180 mg/m2), the AUC(0-inf) was 14000 ng·h/mL and the Cmax was found to be 2180 ng/mL. Further, the “induction of H2AX phosphorylation in PBMCs” value in data set [5] (4 hours 30 minutes, returned to baseline by 24 hours) worked out at 10 fold. Besides, the “induction of ATM in PBMCs” value in data set [5] (irinotecan alone (C1D-14)) is “no induction of ATM”. Further, the “γH2AX and pNBS1 in tumor biopsy” value in data set [6] is recorded as > 4 % nuclear area positive (NAP).

As to `CCc1c2c(nc3ccc(O)cc13)-c1cc3c(c(=O)n1C2)COC(=O)[C@]3(O)CC` [SN38], the “SN38/ IRI AUC Ratio” value in data set [4] (setting [7]) is on record as 0.0282 (1.70). Besides, in data set [4] (setting [8]), the “SN38/ IRI AUC Ratio” value is listed as 0.0268 (1.56). In addition, the “SN38/ IRI AUC Ratio, D15/D-14” value in data set [4] (setting [9]) is 1.07 (1.48). In data set [4] (bioequivalence approach), the “90% CI of the AUC ratio (presence/absence of berzosertib)” value is “fell within the traditional boundaries of 80%–125%”. Moreover, the “SN38 AUC ratio D15/D-14, L-90%CI” value in data set [4] (bioequivalence assessment, lower 90% confidence interval) turned out to be 93.6%. The “SN38 AUC ratio D15/D-14, Average BE” value in data set [4] (bioequivalence assessment, presence/absence of berzosertib) amounted to 106.6%. The “SN38 AUC ratio D15/D-14, U-90%CI” value in data set [4] (bioequivalence assessment, upper 90% confidence interval) amounted to 121.5%. For the same compound, in data set [4] (setting [10]), the “SN38 AUC0-inf” value is reported as 0.38 (1.8) mg/L•h, the “SN38 Cmax” value is 25.0 (1.78) µg/L and the “SN38 t½” value is reported as 19.9 (1.3) h. In addition, the “SN38 AUC Ratio D15/D-14” value in data set [4] (presence/absence of berzosertib, dose-normalized AUC, geometric mean (SD)) is 1.07 (1.7).
